Experimental data as given in patent US10806725B2, “Small molecule inhibitors of XBP1 splicing” (GEORGETOWN UNIVERSITY, priority 2011, dated 2020).

What was measured:
Format in all cases: cell-based
[1] = system: antiestrogen resistant LCC9 cells; experiment: Crystal violet cell viability assay, antiestrogen resistant LCC9 cells; details: 72 hours, normalized to vehicle-treated cells, compared with NPPTA
Experimental: To measure cell viability, antiestrogen resistant LCC9 cells were plated in 96-well plastic tissue culture plates at a density of 5×10^3 cells/well. Twenty-four hours after plating, cells were treated with 3-naphthoyl-1,1,1-trifluoroacetone (NPPTA) and the analogs (i.e., Compound JS-011, Compound JS-012, Compound JS-013, Compound JS-014, Compound JS-015, Compound JS-020). After 72 hours, the cell culture media was removed and plates were stained with […] of a solution containing 0.5% crystal violet and 25% methanol, rinsed with deionized water, dried overnight, and resuspended in […] citrate buffer (0.1 M sodium citrate in 50% ethanol) to assess plating efficiency. Intensity of crystal violet staining, assessed at 570 nm and quantified using a Vmax Kinetic Microplate Reader and Softmax software (Molecular Devices Corp., Menlo Park, Calif.), was directly proportional to cell number. Data were normalized to vehicle-treated cells and are presented in FIG. 8 as the mean±SE from representative experiments.

[2] = system: MCF7/LCC9 antiestrogen-resistant breast cancer cells; experiment: Crystal violet cell proliferation assay, MCF7/LCC9 cells (combination with antiestrogens); details: 10 μM Compound Sd-6 combined with 100 nM Faslodex/ICI 182,780 (ICI), 72 h, >1.0 indicates synergistic interaction
Experimental: (§1) Compound Sd-6 was tested in a dose-response assay using different breast cancer cell lines, including MCF7/LCC1, MCF7/LCC9, T47D, and MCF-7. MCF7/LCC1 is an ERα-positive estrogen-independent, antiestrogen-responsive breast cancer cell line. MCF7/LCC9 is an ERα-positive estrogen-independent, antiestrogen-resistant breast cancer cell line. MCF- is an ERα-positive estrogen-dependent, antiestrogen-responsive breast cancer cell line. Cells were first plated in 96-well plastic tissue culture plates (10,000 cells per well). The cells were treated with 500 nM of Compound Sd-6 or the vehicle alone (DMSO) for 48 h. Following treatment, the cells were washed with PBS, stained with a crystal violet staining solution, and allowed to dry for 48-72 hrs. After drying, sodium citrate buffer was added to each well and allowed to incubate for 5 min at room temperature. The absorbance was measured at 450 nm using a microplate reader (Biorad; Hercules, Calif.).
(§2) Compound Sd-6 was tested in a dose-response assay using MCF7/LCC1 antiestrogen-responsive breast cancer cells and MCF7/LCC9 antiestrogen-resistant breast cancer cells. Cells were first plated in 96-well plastic tissue culture plates (10,000 cells per well). […] Following treatment, cell proliferation was determined using a crystal violet assay as described above. […]

[3] = system: MCF 10A, a non-breast cancer cell line; experiment: Crystal violet dose-response cell proliferation assay, MCF 10A control cells; details: MCF 10A cells; 10 μM, 25 μM or 50 μM for 72 h
Experimental: as §1
Compound Sd-6 was tested in a dose-response assay using different breast cancer cell lines, including MCF7/LCC1, MCF7/LCC9, T47D, MCF-7, MCF-7/RR, LY2, and MDA-MB-231. MCF 10A, a non-breast cancer cell line, served as the control. The cells were first plated in 96-well plastic tissue culture plates (10,000 cells per well). […] Following treatment, cell proliferation was determined using a crystal violet assay as described in Example 1.

[4] = system: MCF7/LCC1 antiestrogen-responsive breast cancer cells; experiment: Crystal violet cell proliferation assay, MCF7/LCC1 cells (combination with antiestrogens); details: 72 h, >1.0 indicates synergistic interaction
Experimental: as §1, §2

Row | SMILES | Inhibition of LCC9 cells (cell viability, crystal violet) [1] | RI value (Sexp/Sobs) for inhibition of cell proliferation [2] | Response of relative cell proliferation to compound [3] | RI value (Sexp/Sobs) for inhibition of cell proliferation ([4]; 10 μM Compound Sd-6 combined with 100 nM Faslodex/ICI 182,780 (ICI)) | RI value (Sexp/Sobs) for inhibition of cell proliferation ([4]; 10 μM Compound Sd-6 combined with 100 nM Tamoxifen (TAM))
1 | O=C(CSc1nc(-c2cccnc2)n[nH]1)Nc1ccc(Oc2ccc(Cl)cc2)cc1 [JS-014] | effective, and more potent than NPPTA |  |  |  | 
2 | O=C(CSc1nc(-c2cccnc2)n[nH]1)Nc1ccc(Oc2ccc(C(F)(F)F)cc2)cc1 [JS-020] | effective, and more potent than NPPTA |  |  |  | 
3 | O=C(CSc1nc(-c2cccnc2)n[nH]1)Nc1ccc(Oc2ccccc2)cc1 [Compound Sd-6] |  | 1.27 | did not respond | 1.44 | 1.82
